Consider 51 compounds from US7776862B2, “Pyridyl and phenyl substituted piperazine-piperidines with CXCR3 antagonist activity” (Schering Corporation, priority 2005, dated 2010).

For the assay, the target named is T1, human CXCR3 (N-delta 4) (Homo sapiens, UniProt P49682).
T1 construct: CD8 leader; Flag tag; expressed in transfected cells; membranes used
T1 sequence (P49682 5-368 limits assumed): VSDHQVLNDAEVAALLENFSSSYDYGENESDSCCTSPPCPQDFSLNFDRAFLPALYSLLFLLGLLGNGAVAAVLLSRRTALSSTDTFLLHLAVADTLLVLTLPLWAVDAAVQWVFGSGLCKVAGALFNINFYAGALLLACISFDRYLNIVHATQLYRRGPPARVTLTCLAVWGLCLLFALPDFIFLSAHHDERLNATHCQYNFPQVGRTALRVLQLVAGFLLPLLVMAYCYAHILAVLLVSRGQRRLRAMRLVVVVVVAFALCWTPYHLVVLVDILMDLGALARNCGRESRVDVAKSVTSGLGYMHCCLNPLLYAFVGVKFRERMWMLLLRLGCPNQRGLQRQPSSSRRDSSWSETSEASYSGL
Nature of the assay: Human CXCR3 (N-delta 4) scintillation proximity assay (SPA), [125I] IP-10 binding. Conditions: IC50 rating; Ba/F3-hCXCR3 (N-delta 4) membranes, 25 pM [125I] IP-10. An excerpt: The inventive compounds can readily be evaluated to determine activity at the CXCR3 receptors by known methods, such as, for example, development of a human CXCR3 (N-delta 4) Binding Assay.
Cloning and expression of human CXCR3 (N-delta 4):
The DNA encoding human CXCR3 was cloned by PCR using human genomic DNA (Promega, Madison, Wis.) as a template. The PCR primers were designed based on the published sequence of human orphan receptor GPR9 (1) with incorporated restriction sites, a Kozak consensus sequence, CD8 leader and Flag tag. The PCR product was subcloned into the mammalian expression vector pME18Sneo, a derivative of the SR-alpha expression vector (designated as pME18Sneo-hCXCR3 (N-delta 4).
IL-3-dependent mouse pro-B cells Ba/F3 were transfected by electroporation in 0.4 ml Dulbecco's PBS containing 4×10^6 cells with 20 μg of pME18Sneo-hCXCR3 (N-delta 4) plasmid DNA. Cells were pulsed at 400 Volts, 100 OHMs, 960 μFd. The transfected cells were under selection with 1 mg/ml G418 (Life Technologies, Gaithersburg, Md.). […] IP-10 (NEN Life Science Products, Boston, Mass.).
Preparation of Ba/F3-hCXCR3 (N-delta 4) membranes:
Ba/F3 cells expressing human CXCR3 (N-delta 4) were pelleted and resuspended in the lysis buffer containing 10 mM HEPES, pH 7.5 and Complete® protease inhibitors (1 tablet per 100 ml) (Boehringer Mannheim, Indianapolis, Ind.) at a cell density of 20×10^6 cells per ml. […] Large cellular debris was removed by centrifugation at 1,000×g. Cell membrane in the supernatant was sedimented at 100,000×g. The membrane was resuspended in the lysis buffer supplemented with 10% sucrose and stored at −80° C. Total protein concentration of the membrane was determined by BCA method from Pierce (Rockford, Ill.).
Human CXCR3 (N-delta 4) scintillation proximity assay (SPA):
The beads were spun down, washed once, resuspended in the binding buffer and transferred to a 96-well Isoplate (Wallac, Gaithersburg, Md.). […] IP-10 with tested compounds in a series of titration were added to start the reaction.
(In general: SPA uses beads or plates that emit light when radiolabelled molecules are held near them.)
As usually defined, the IC50 is the concentration that gives 50% inhibition. The compound `O=C(NCc1cccc(F)c1)c1cnc(N2CCN(C3CCN(Cc4ccc(Cl)cc4Cl)CC3)CC2)c(Cl)c1` [compound 1] displayed a concentration for half-maximal inhibition (IC50) of over 100 nM.
`N#Cc1ccc(C(=O)N2CCC(N3CCN(c4ncc(C(=O)NCc5ccc(C(F)(F)F)cc5)cc4Cl)CC3)CC2)cc1` [compound 2] gave an IC50 of over 100 nM.
Consider `O=C(NC1CCc2ccccc21)c1cnc(N2CCN(C3CCN(Cc4ccc(Cl)cc4)CC3)CC2)c(Br)c1` (stereo not drawn) [compound 3], for which the IC50 was over 100 nM.
The compound `O=C(NCc1ccc(F)cc1)c1cnc(N2CCN(C3CCN(Cc4ccc(Br)cc4F)CC3)CC2)c(Cl)c1` [compound 4] registered an IC50 of over 100 nM.
Then `O=C(NCc1ccccc1)c1cnc(N2CCN(C3CCN(Cc4ccc(F)cc4)CC3)CC2)c(Cl)c1` [compound 5], with over 100 nM; and `N#Cc1ccc(CN2CCC(N3CCN(c4ncc(C(=O)NCc5ccccc5F)cc4Cl)CC3)CC2)cc1` [compound 6], with over 100 nM.
For the compound `O=C(NCc1ccc(F)cc1)c1cnc(N2CCN(C3CCN(Cc4ccc(Cl)cc4Cl)CC3)CC2)c(Cl)c1` [compound 7], the concentration for half-maximal inhibition (IC50) is over 100 nM.
The result for `O=C(NCc1cccc(F)c1)c1cnc(N2CCN(C3CCN(Cc4ccc(F)cc4F)CC3)CC2)c(Cl)c1` [compound 8] reads over 100 nM; that for `CC1(C)C2CCC(CNC(=O)c3cnc(N4CCN(C5CCN(Cc6ccc(Cl)cc6)CC5)CC4)c(Br)c3)C1C2` (stereo not drawn) [compound 9], over 100 nM; that for `O=C(NCc1ccc(F)cc1F)c1cnc(N2CCN(C3CCN(Cc4ccc(Cl)cc4Cl)CC3)CC2)c(Cl)c1` [compound 10], over 100 nM.
In turn, `O=C(NCc1ccc(Br)cc1)c1cnc(N2CCN(C3CCN(Cc4ccc(Cl)cc4Cl)CC3)CC2)c(Cl)c1` [compound 11] returned a half-maximal inhibitory concentration (IC50) of over 100 nM.
On to `O=C(NCc1cc(Cl)cc(Cl)c1)c1cnc(N2CCN(C3CCN(Cc4ccc(F)cc4F)CC3)CC2)c(Cl)c1` [compound 12], for which the half-inhibitory concentration (IC50) was over 100 nM.
Then `O=C(NCc1ccc(Cl)cc1)c1cnc(N2CCN(C3CCN(Cc4ccc(Cl)cc4Cl)CC3)CC2)c(Cl)c1` [compound 13], with over 100 nM; and `O=C(NCc1cccc(F)c1)c1cnc(N2CCN(C3CCN(Cc4ccc(Br)cc4F)CC3)CC2)c(Cl)c1` [compound 14], with over 100 nM.
Then `N#Cc1ccc(C(=O)N2CCC(N3CCN(c4ncc(C(=O)NCCOc5ccccc5)cc4Cl)CC3)CC2)cc1` [compound 15], with over 100 nM; and `O=C(NCCOc1ccccc1)c1cnc(N2CCN(C3CCN(Cc4ccc(F)cc4F)CC3)CC2)c(Cl)c1` [compound 16], with over 100 nM.
Then `O=C(NCc1ccc(Cl)c(Cl)c1)c1ccc(N2CCN(C3CCN(Cc4ccc(Cl)cc4)CC3)CC2)c(Cl)c1` [compound 17], with over 100 nM.
`O=C(NC1CCCC1)c1cnc(N2CCN(C3CCN(Cc4ccc([N+](=O)[O-])cc4)CC3)CC2)c(Cl)c1` [compound 18] had an IC50 of over 100 nM.
Then `N#Cc1ccc(C(=O)N2CCC(N3CCN(c4ncc(C(=O)NCc5ccc(F)cc5)cc4Cl)CC3)CC2)cc1` [compound 19], with over 100 nM.
As to `O=C(NCc1ccc(F)cc1F)c1cnc(N2CCN(C3CCN(Cc4ccc(Br)cc4F)CC3)CC2)c(Cl)c1` [compound 20], the half-inhibitory concentration (IC50) is over 100 nM.
In turn, `N#Cc1ccc(CN2CCC(N3CCN(c4ncc(C(=O)NCc5ccccc5)cc4Cl)CC3)CC2)cc1` [compound 21] registered an IC50 of over 100 nM.
The result for `O=C(NC1CCCC1)c1cnc(N2CCN(C3CCN(Cc4ccc(Cl)c(F)c4)CC3)CC2)c(Cl)c1` [compound 22] reads over 100 nM; that for `O=C(NCCOc1ccccc1)c1cnc(N2CCN(C3CCN(Cc4ccc(Br)cc4F)CC3)CC2)c(Cl)c1` [compound 23], over 100 nM.
As to `O=C(NCc1cccc(Cl)c1)c1cnc(N2CCN(C3CCN(Cc4ccc(Cl)c(F)c4)CC3)CC2)c(Cl)c1` [compound 24], the 50% inhibitory concentration (IC50) is over 100 nM.
Then `O=C(NCc1ccc(F)c(F)c1)c1cnc(N2CCN(C3CCN(Cc4ccc(Cl)cc4Cl)CC3)CC2)c(Cl)c1` [compound 25], with over 100 nM.
Then `O=C(NCc1ccc(Cl)cc1Cl)c1cnc(N2CCN(C3CCN(Cc4ccc(Br)cc4F)CC3)CC2)c(Cl)c1` [compound 26], with over 100 nM; and `O=C(NCc1ccc(Cl)cc1F)c1cnc(N2CCN(C3CCN(Cc4ccc(Br)cc4F)CC3)CC2)c(Cl)c1` [compound 27], with over 100 nM; and `O=C(NCc1cccc(Cl)c1)c1cnc(N2CCN(C3CCN(Cc4ccc(F)cc4F)CC3)CC2)c(Cl)c1` [compound 28], with over 100 nM.
The compound `O=C(NCc1cccc(F)c1)c1cnc(N2CCN(C3CCN(Cc4ccc(F)cc4)CC3)CC2)c(Cl)c1` [compound 29] came in with an IC50 of over 100 nM.
For the compound `COc1ccc(CN2CCC(N3CCN(c4ncc(C(=O)NCc5cccc(F)c5)cc4Cl)CC3)CC2)cc1` [compound 30], the 50% inhibitory concentration (IC50) is over 100 nM.
`O=C(NCc1ccc(C(F)(F)F)cc1)c1cnc(N2CCN(C3CCN(Cc4ccc(Br)cc4)CC3)CC2)c(Cl)c1` [compound 31] registered a concentration for half-maximal inhibition (IC50) of over 100 nM.
In turn, `CC(c1ccc(C#N)cc1)N1CCC(N2CCN(c3ncc(C(=O)NCc4ccc(Cl)c(Cl)c4)cc3Cl)CC2)CC1` (stereo not drawn) [compound 32] gave a concentration for half-maximal inhibition (IC50) of over 100 nM.
Then `O=C(NCc1ccc(F)c(Cl)c1)c1cnc(N2CCN(C3CCN(Cc4ccc(Br)cc4F)CC3)CC2)c(Cl)c1` [compound 33], with over 100 nM.
Then `O=C(NCc1ccc(F)cc1)c1cnc(N2CCN(C3CCN(Cc4ccc(F)cc4F)CC3)CC2)c(Cl)c1` [compound 34], with over 100 nM; and `O=C(NCCOc1ccccc1)c1cnc(N2CCN(C3CCN(Cc4ccc(F)c(F)c4)CC3)CC2)c(Cl)c1` [compound 35], with over 100 nM.
On to `O=C(NCc1ccc(Br)cc1)c1cnc(N2CCN(C3CCN(Cc4ccc(Br)cc4F)CC3)CC2)c(Cl)c1` [compound 36], for which the concentration for half-maximal inhibition (IC50) is over 100 nM.
The result for `O=C(NC1CCCC1)c1cnc(N2CCN(C3CCN(Cc4ccc(Br)cc4)CC3)CC2)c(Cl)c1` [compound 37] reads over 100 nM; that for `O=C(NCCOc1ccccc1)c1cnc(N2CCN(C3CCN(Cc4ccc(Cl)cc4Cl)CC3)CC2)c(Cl)c1` [compound 38], over 100 nM.
Then `O=C(NCc1ccccc1)c1cnc(N2CCN(C3CCN(Cc4ccc(Br)cc4)CC3)CC2)c(Cl)c1` [compound 39], with over 100 nM.
The result for `N#Cc1ccc(CN2CCC(N3CCN(c4ncc(C(=O)NCc5cc(Cl)cc(Cl)c5)cc4Cl)CC3)CC2)cc1` [compound 40] reads over 100 nM.
Regarding `O=C(NCc1ccc(F)cc1F)c1cnc(N2CCN(C3CCN(Cc4ccc(F)cc4F)CC3)CC2)c(Cl)c1` [compound 41], the IC50 was over 100 nM.
The result for `COc1ccc(CN2CCC(N3CCN(c4ncc(C(=O)NCc5ccc(C(F)(F)F)cc5)cc4Cl)CC3)CC2)cc1` [compound 42] reads over 100 nM; that for `O=C(NCc1cccc(Cl)c1)c1cnc(N2CCN(C3CCN(Cc4ccc(Br)cc4)CC3)CC2)c(Cl)c1` [compound 43], over 100 nM; that for `COc1ccc(CN2CCC(N3CCN(c4ncc(C(=O)NCc5cc(Cl)cc(Cl)c5)cc4Cl)CC3)CC2)cc1` [compound 44], over 100 nM.
Then `CC(c1ccc(Cl)cc1)N1CCC(N2CCN(c3ncc(C(=O)NCc4ccc(Cl)c(Cl)c4)cc3Cl)CC2)CC1` (stereo not drawn) [compound 45], with over 100 nM; and `CC(c1ccc(Cl)cc1)N1CCC(N2CCN(c3ncc(C(=O)NCc4ccc(F)c(F)c4)cc3Cl)CC2)CC1` (stereo not drawn) [compound 46], with over 100 nM; and `N#Cc1ccc(CN2CCC(N3CCN(c4ncc(C(=O)NCc5cccc(Cl)c5)cc4Cl)CC3)CC2)cc1` [compound 47], with over 100 nM.
As to `O=C(NCc1ccc(Cl)cc1)c1cnc(N2CCN(C3CCN(Cc4ccc(Br)cc4F)CC3)CC2)c(Cl)c1` [compound 48], the concentration for half-maximal inhibition (IC50) was over 100 nM.
The result for `O=C(NCCOc1ccccc1)c1cnc(N2CCN(C3CCN(Cc4ccc(Cl)c(Cl)c4)CC3)CC2)c(Cl)c1` [compound 49] reads over 100 nM.
The result for `COc1ccc(CN2CCC(N3CCN(c4ncc(C(=O)NCc5ccc(F)cc5)cc4Cl)CC3)CC2)cc1` [compound 50] reads over 100 nM; that for `N#Cc1ccc(C(=O)N2CCC(N3CCN(c4ncc(C(=O)NCc5ccc(F)c(F)c5)cc4Cl)CC3)CC2)cc1` [compound 51], over 100 nM.
